Experimental data from PubChem BioAssay AID2060891 (Molecular Pharmacology Branch, DTP, NCI, 2025).

System: K98450-129-R-PDC complex spheroid growth, percent test/control
Test: Anticancer human tumor K98450-129-R-PDC patient-derived colon adenocarcinoma cell line growth inhibition [RAS]
Details: for IC50: curve of first compound; for viability, T/C: stronger effect = lower value; active = viability on the fitted dose curve at most 10% of control; inactive = the rest
How it was run: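 Agents were tested in combination matrices in half-log decrements from a top concentration at or near clinical Cmax (10 microM if undetermined). Targets were multi-cell spheroids of tumour lines plus HUVEC and MSC stromal cells.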
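Also: spheroids exposed to agents for seven days before the viability readout.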
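For viability, T/C in this document: luminescence used as a proxy for viable cell amount.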

Cc1nc(N2CCC3(CC2)COC(C)C3N)c(CO)nc1Sc1ccnc(N)c1Cl (configuration not stated) + C#Cc1c(F)ccc2cc(O)cc(-c3ncc4c(N5CC6CCC(C5)N6)nc(OCC56CCCN5CC(F)C6)nc4c3F)c12
513 nM: IC50 (second compound 10 µM)
active: viability, T/C (second compound 3.16 µM, first compound 10 µM) 10.5% | viability, T/C (second compound 10 µM, first compound 10 µM) 7.51%
inactive: viability, T/C (second compound 0.0316 µM, first compound 0.0316 µM) 104% | viability, T/C (second compound 0.0316 µM, first compound 0.1 µM) 93.3% | viability, T/C (second compound 0.0316 µM, first compound 0.316 µM) 88.8% | viability, T/C (second compound 0.0316 µM, first compound 1 µM) 75.8% | viability, T/C (second compound 0.0316 µM, first compound 3.16 µM) 46.9% | viability, T/C (second compound 0.0316 µM, first compound 10 µM) 25% | viability, T/C (second compound 0.1 µM, first compound 0.0316 µM) 112% | viability, T/C (second compound 0.1 µM, first compound 0.1 µM) 93.5% | viability, T/C (second compound 0.1 µM, first compound 0.316 µM) 83.6% | viability, T/C (second compound 0.1 µM, first compound 1 µM) 80.8% | viability, T/C (second compound 0.1 µM, first compound 3.16 µM) 45.3% | viability, T/C (second compound 0.1 µM, first compound 10 µM) 21.5% | viability, T/C (second compound 0.316 µM, first compound 0.0316 µM) 101% | viability, T/C (second compound 0.316 µM, first compound 0.1 µM) 97.5% | viability, T/C (second compound 0.316 µM, first compound 0.316 µM) 86.1% | viability, T/C (second compound 0.316 µM, first compound 1 µM) 66.6% | viability, T/C (second compound 0.316 µM, first compound 3.16 µM) 43.1% | viability, T/C (second compound 0.316 µM, first compound 10 µM) 19.8% | viability, T/C (second compound 1 µM, first compound 0.0316 µM) 97% | viability, T/C (second compound 1 µM, first compound 0.1 µM) 98.9% | viability, T/C (second compound 1 µM, first compound 0.316 µM) 84% | viability, T/C (second compound 1 µM, first compound 1 µM) 64.3% | viability, T/C (second compound 1 µM, first compound 3.16 µM) 34.3% | viability, T/C (second compound 1 µM, first compound 10 µM) 12.9% | viability, T/C (second compound 3.16 µM, first compound 0.0316 µM) 91.2% | viability, T/C (second compound 3.16 µM, first compound 0.1 µM) 82% | viability, T/C (second compound 3.16 µM, first compound 0.316 µM) 79.8% | viability, T/C (second compound 3.16 µM, first compound 1 µM) 52.7% | viability, T/C (second compound 3.16 µM, first compound 3.16 µM) 17.1% | viability, T/C (second compound 10 µM, first compound 0.0316 µM) 83.4% | viability, T/C (second compound 10 µM, first compound 0.1 µM) 82.2% | viability, T/C (second compound 10 µM, first compound 0.316 µM) 62.8% | viability, T/C (second compound 10 µM, first compound 1 µM) 31.7% | viability, T/C (second compound 10 µM, first compound 3.16 µM) 11.4%
2240 nM: IC50 (second compound 0.316 µM)
3130 nM: IC50 (second compound 0.1 µM)
1070 nM: IC50 (second compound 3.16 µM)
1720 nM: IC50 (second compound 1 µM)
3010 nM: IC50 (second compound 0.0316 µM)
